How the values were obtained:
Assay type in all cases: biochemical
Human Cathepsin S = target: T1, Human Cathepsin S (Homo sapiens, UniProt P25774); assay: Enzyme inhibition assay, Human Cathepsin S (fluorometric); details: triplicates, value (SD)
T1 construct: purchased ABCAM (so in the source) 1183-cy
Method: (§1) Enzyme inhibition assays were performed in triplicates using transparent 96-well plates for Calpain, Trypsin, Papain, Cathepsin L and Cathepsin B (167008; Nunc, Roskilde, Denmark), or black ones for Cathepsin S, (Greiner 96 Polystyrol GRE96fb), according to manufacturers’ instructions. Briefly, a reaction mixture of 100 µL contained: 45µL of enzyme in assay buffer, 5 µL of inhibitor diluted in DMSO. 50 µL substrate prepared in assay buffer according to manufacturers’ instructions. The inhibitor was serially diluted in DMSO to concentrations from 0.0075 µg/µL to 0.0000075 µg/µL. A total of […] DMSO was added to the control sample. The enzyme substrate mix was added last, just before starting the fluorometric measurement. Data were collected for 1.5 h at 60 sec intervals.
(§2) Papain Latex (cat. No. p3125), Human Cathepsin B (cat.no. C0150), Trypsin and Calpain (cat. No. ab910119) and the substrate, casein-FITC, were obtained from Sigma-Aldrich. The assay was carried out in 0.3 M potassium chloride, 0.1 mM EDTA, and 3 mM DTT pH 6.5. Ex/Em = 485–535 nm. Human Cathepsins S (cat. No. 1183-cy) and L (cat.no. ab174030) and their substrates were Mca-RPKPVE-Nval-WRK (Dnp)-NH2 (ES002) and Ac-FR-AFC, respectively. They were obtained from ABCAM. Assay buffer for Human Cathepsin S was 50 mM NaOAc, 250 mM NaCl, 5 mM DTT pH 4.5. […]

Human Cathepsin L = target: T2, Human Cathepsin L (Homo sapiens, UniProt P07711); assay: Enzyme inhibition assay, Human Cathepsin L (fluorometric); details: triplicates, value (SD)
T2 construct: purchased ABCAM ab174030
Method: as §1, §2

Human Cathepsin B = target: T3, Human Cathepsin B (Homo sapiens, UniProt P07858); assay: Enzyme inhibition assay, Human Cathepsin B (casein-FITC); details: triplicates, value (SD)
T3 construct: purchased Sigma-Aldrich C0150
Method: as §1, §2

Papain Latex = target: T4, Papain Latex (Carica papaya, UniProt P00784); assay: Enzyme inhibition assay, Papain Latex (casein-FITC)
T4 construct: purchased Sigma-Aldrich p3125
Method: as §1, §2

T2 sequence (P07711 114-333): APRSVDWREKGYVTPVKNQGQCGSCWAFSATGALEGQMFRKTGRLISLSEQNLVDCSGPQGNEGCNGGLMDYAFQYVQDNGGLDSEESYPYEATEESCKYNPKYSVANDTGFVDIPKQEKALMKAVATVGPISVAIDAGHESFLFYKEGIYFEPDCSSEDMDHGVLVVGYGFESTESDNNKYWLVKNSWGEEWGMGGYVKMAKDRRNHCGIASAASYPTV
T1 sequence (P25774 115-331): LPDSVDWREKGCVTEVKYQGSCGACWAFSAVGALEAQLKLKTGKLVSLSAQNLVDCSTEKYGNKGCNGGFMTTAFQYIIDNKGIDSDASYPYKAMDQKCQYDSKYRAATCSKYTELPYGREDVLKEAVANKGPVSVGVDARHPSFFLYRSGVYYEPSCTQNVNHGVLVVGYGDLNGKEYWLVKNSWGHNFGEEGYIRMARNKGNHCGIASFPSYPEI
T4 sequence (P00784 134-345): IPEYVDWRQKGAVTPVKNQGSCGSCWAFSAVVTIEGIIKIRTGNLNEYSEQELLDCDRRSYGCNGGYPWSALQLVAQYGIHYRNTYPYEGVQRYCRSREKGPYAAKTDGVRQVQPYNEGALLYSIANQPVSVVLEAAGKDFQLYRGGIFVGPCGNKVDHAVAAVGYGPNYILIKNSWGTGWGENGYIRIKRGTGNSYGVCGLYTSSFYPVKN

For CC1CCC(c2ccoc2)N2C1CCC1(CSC3(CCC4C(C)CCC(c5ccoc5)N4C3O)C1)C2O (stereo not shown) [DTBN, 6,6′-dihydroxythiobinupharidine], the IC50 (Human Cathepsin S) was 3.2 µM, the IC50 (Human Cathepsin L) was 13.2 µM and the IC50 (Human Cathepsin B) was 1360 µM. For the same compound, the IC50 (Papain Latex) was 70.4 µM.

Source: publication PMC8399019, “Inhibition of Cysteine Proteases by 6,6′-Dihydroxythiobinupharidine (DTBN) from Nuphar lutea” (Molecules, 2021)
